From patent US20080171737A1 (Wyeth, priority 2006, published 2008)

Each compound was assayed against T1, human hNET (Homo sapiens, UniProt P23975) (assay: Functional norepinephrine reuptake assay, Procedure B (6,000 cells/well)). Details: MDCK-Net6 cells, 6,000 cells/well, 16 nM 3H-norepinephrine; read-out: Procedure B hNET uptake IC50.
T1 construct: expressed in transfected cells; host or cells: MDCK-Net6 (MDCK cells stably transfected with hNET)
Type: cell-based
Experimental: For screening, 25 μl aliquots of compound solution at a 1 μM or 10 μM final concentration was delivered directly to cells.
For IC50 determinations, stock compounds were prepared at 10 mM from powder. The stock solution was diluted according to compound testing range. […] On the day of assay, 25 μl of compound solution at the specified concentrations were added to the plates containing cells. A DMSO stock of desipramine was prepared at 10 mM in DMSO and diluted for a final concentration of 20 μM to determine the non-specific reuptake.
MDCK-Net6 cells, stably transfected with human hNET (Pacholczyk, 1991), were maintained in growth media [high glucose DMEM (Gibco Cat. 11995), 10% FBS (dialyzed, heat-inactivated, Sigma, dialysed, heat inactivated, Lot# K0922 or equivalent) 1xPen/Strep, and 500 μg/ml G418 (Gibco Cat. 10131)]. Cells were plated at 300,000/T75 flask and cells split twice weekly.
Cells were plated at 50,000 cells/well (Procedure A) or 6,000 cells/well (Procedure B) on day 1 in BD Falcon Microtest 96-well sterile cell culture plates, Optilux White/Clear Bottom TC plate (VWR; # 62406-466 or equivalent) in growth media and maintained in a cell incubator (37° C., 5% CO2). On Day 2, cells were removed from the cell incubator and the growth media is replaced by 200 μl of assay buffer (25 mm HEPES 120 mM NaCL; 5 mM KCl; 2.5 mM CaCl2; 1.2 mM MgSO4; 2 mg/ml glucose (pH 7.4, 37° C.)) containing 0.2 mg/ml ascorbic acid and 1 μM parglyine. For screening, 25 μl of compound in 4% DMSO was added directly to each well and the plate was incubated for 5 minutes (37° C.). […] The reaction is aspirated from the plate and the cells washed with 250 μl of 50 mM Tris Buffer (4° C.). The plates were left to dry for 1 hour. The cells were lysed using 0.25 M NaOH solution then placed on a shake table and vigorously shaken for 10 minutes. After cell lysis, 100 μl of Microscint 20 (PerkinElmer; #87-051101) was added to the plates and the plates were sealed with film tape and replaced on the shake table for a minimum of 10 minutes. The plates were counted in a TopCount counter (PerkinElmer).
% inhibition=[1−((mean cpm test compound wells−mean cpm non-specific wells)/(mean cpm control wells−mean cpm non-specific wells))]×100
For IC50 determination, raw cpm values were generated in a data file from the TopCount counter. The data was organized using the Microsoft Excel and transferred into PRIZM graphing and statistical program, which calculated the estimated IC50 value. Calculation of IC50 values was made using non-linear regression analysis with a sigmoidal dose response with variable slope. The statistical program used wells containing ^3H norepinephrine only as the maximal NE reuptake determinant and wells containing ^3H norepinephrine plus 20 μM desipramine (AHR-9543) as the minimal NE reuptake determinant (non-specific determinant). Estimation of the IC50 value was completed on a log scale and the line was fit between the maximal and minimal NE reuptake values.

T1 sequence (P23975 whole entry): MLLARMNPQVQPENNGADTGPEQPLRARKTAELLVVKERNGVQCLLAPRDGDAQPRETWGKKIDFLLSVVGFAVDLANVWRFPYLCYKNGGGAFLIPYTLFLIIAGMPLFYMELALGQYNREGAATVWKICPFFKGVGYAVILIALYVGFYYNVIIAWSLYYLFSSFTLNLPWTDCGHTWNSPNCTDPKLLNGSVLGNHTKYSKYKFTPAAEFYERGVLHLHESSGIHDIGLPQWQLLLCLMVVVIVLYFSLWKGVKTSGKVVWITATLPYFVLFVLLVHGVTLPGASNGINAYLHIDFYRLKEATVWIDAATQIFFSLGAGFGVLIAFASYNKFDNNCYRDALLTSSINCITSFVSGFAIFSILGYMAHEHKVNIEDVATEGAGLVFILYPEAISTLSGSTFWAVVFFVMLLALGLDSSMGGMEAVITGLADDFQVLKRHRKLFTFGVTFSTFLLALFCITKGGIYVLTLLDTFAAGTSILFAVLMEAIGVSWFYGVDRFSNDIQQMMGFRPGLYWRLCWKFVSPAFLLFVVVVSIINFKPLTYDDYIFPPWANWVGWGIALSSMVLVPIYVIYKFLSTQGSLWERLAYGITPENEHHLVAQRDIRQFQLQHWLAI

Compound | IC50 [nM]
CNCCCC1Oc2ccccc2N(c2ccc(F)cc2)S1(=O)=O (stereo not shown) [Example 15, 3-[1-(4-fluorophenyl)-2,2-dioxido-1H-4,2,1-benzoxathiazin-3-yl]-N-methylpropan-1-amine] | 492
CNCCCC1Oc2ccccc2N(c2cccc(C)c2)S1(=O)=O (stereo not shown) [Example 16, N-methyl-3-[1-(3-methylphenyl)-2,2-dioxido-1H-4,2,1-benzoxathiazin-3-yl]propan-1-amine] | 361
CNCCCC1Oc2ccccc2N(c2ccc(C)cc2)S1(=O)=O (stereo not shown) [Example 17, N-methyl-3-[1-(4-methylphenyl)-2,2-dioxido-1H-4,2,1-benzoxathiazin-3-yl]propan-1-amine] | 26.4
CNCCCC1Oc2ccccc2N(c2cccc(OC)c2)S1(=O)=O (stereo not shown) [Example 18, 3-[1-(3-methoxyphenyl)-2,2-dioxido-1H-4,2,1-benzoxathiazin-3-yl]-N-methylpropan-1-amine] | 353
CNCCCC1Oc2ccccc2N(c2ccc(OC)cc2)S1(=O)=O (stereo not shown) [Example 19, 3-[1-(4-methoxyphenyl)-2,2-dioxido-1H-4,2,1-benzoxathiazin-3-yl]-N-methylpropan-1-amine] | 1200
CNCCCC1Oc2ccccc2N(c2cccc(F)c2)S1(=O)=O (stereo not shown) [Example 20, 3-[1-(3-fluorophenyl)-2,2-dioxido-1H-4,2,1-benzoxathiazin-3-yl]-N-methylpropan-1-amine] | 106
CNCCCC1Oc2ccccc2N(c2ccc3ccccc3c2)S1(=O)=O (stereo not shown) [Example 21, N-methyl-3-[1-(2-naphthyl)-2,2-dioxido-1H-4,2,1-benzoxathiazin-3-yl]propan-1-amine] | 4570
CNCCCC1Oc2ccccc2N(c2cc(C)cc(C)c2)S1(=O)=O (stereo not shown) [Example 22, 3-[1-(3,5-dimethylphenyl)-2,2-dioxido-1H-4,2,1-benzoxathiazin-3-yl]-N-methylpropan-1-amine] | 4150
CCNCCC1Oc2ccccc2N(c2ccccc2)S1(=O)=O (stereo not shown) [Example 23, 2-(2,2-dioxido-1-phenyl-1H-4,2,1-benzoxathiazin-3-yl)-N-ethylethanamine] | 244
NCCC1Oc2ccccc2N(c2ccccc2)S1(=O)=O (stereo not shown) [Example 24, 2-(2,2-dioxido-1-phenyl-1H-4,2,1-benzoxathiazin-3-yl)ethanamine] | 583
CNCCC1Oc2ccccc2N(c2ccccc2)S1(=O)=O (stereo not shown) [Example 25, 2-(2,2-dioxido-1-phenyl-1H-4,2,1-benzoxathiazin-3-yl)-N-methylethanamine] | 162
CN(C)CCC1Oc2ccccc2N(c2ccccc2)S1(=O)=O (stereo not shown) [Example 26, 2-(2,2-dioxido-1-phenyl-1H-4,2,1-benzoxathiazin-3-yl)-N,N-dimethylethanamine] | 97.1
CCCNCCC1Oc2ccccc2N(c2ccccc2)S1(=O)=O (stereo not shown) [Example 27, N-[2-(2,2-dioxido-1-phenyl-1H-4,2,1-benzoxathiazin-3-yl)ethyl]propan-1-amine] | 4410
CC(C)CNCCC1Oc2ccccc2N(c2ccccc2)S1(=O)=O (stereo not shown) [Example 28, N-[2-(2,2-dioxido-1-phenyl-1H-4,2,1-benzoxathiazin-3-yl)ethyl]-2-methylpropan-1-amine] | 1760
O=S1(=O)C(CCN2CCCC2)Oc2ccccc2N1c1ccccc1 (stereo not shown) [Example 29, 1-phenyl-3-(2-pyrrolidin-1-ylethyl)-1H-4,2,1-benzoxathiazine 2,2-dioxide] | 1640
CCNCCCC1Oc2ccccc2N(c2ccccc2)S1(=O)=O (stereo not shown) [Example 34, 3-(2,2-dioxido-1-phenyl-1H-4,2,1-benzoxathiazin-3-yl)-N-ethylpropan-1-amine] | 2580

Second part, the compound after the results:

IC50 [nM] | Compound
288 | CNCCC[C@H]1Cc2cc(F)ccc2N(c2ccccc2C#N)S1(=O)=O (single isomer, unassigned) [Example 164]
206 | CNCCC[C@@H]1Cc2cc(F)ccc2N(c2ccccc2C#N)S1(=O)=O (single isomer, unassigned) [Example 165]
587 | CNCCC[C@H]1Cc2cc(F)ccc2N(c2ccccc2OC)S1(=O)=O (single isomer, unassigned) [Example 167]
341 | CNCCC[C@@H]1Cc2cc(F)ccc2N(c2ccccc2OC)S1(=O)=O (single isomer, unassigned) [Example 168]
343 | CNCCC[C@H]1Cc2cc(F)ccc2N(c2ccc(F)cc2C)S1(=O)=O (single isomer, unassigned) [Example 170]
322 | CNCCC[C@@H]1Cc2cc(F)ccc2N(c2ccc(F)cc2C)S1(=O)=O (single isomer, unassigned) [Example 171]
20 | CNCCC[C@H]1Cc2cc(Cl)ccc2N(c2ccccc2F)S1(=O)=O (single isomer, unassigned) [Example 176]
43 | CNCCC[C@@H]1Cc2cc(Cl)ccc2N(c2ccccc2F)S1(=O)=O (single isomer, unassigned) [Example 177]
1660 | CCCCNCCC1Oc2ccccc2N(c2ccccc2)S1(=O)=O (stereo not shown) [Example 31, N-[2-(2,2-dioxido-1-phenyl-1H-4,2,1-benzoxathiazin-3-yl)ethyl]butan-1-amine]
597 | NCCCC1Oc2ccccc2N(c2ccccc2)S1(=O)=O (stereo not shown) [Example 33, 3-(2,2-dioxido-1-phenyl-1H-4,2,1-benzoxathiazin-3-yl)propan-1-amine]
5100 | CCCNCCCC1Oc2ccccc2N(c2ccccc2)S1(=O)=O (stereo not shown) [Example 35, 3-(2,2-dioxido-1-phenyl-1H-4,2,1-benzoxathiazin-3-yl)-N-propylpropan-1-amine]
1080 | O=S1(=O)C(CCCNC2CC2)Oc2ccccc2N1c1ccccc1 (stereo not shown) [Example 40, N-[3-(2,2-dioxido-1-phenyl-1H-4,2,1-benzoxathiazin-3-yl)propyl]cyclopropanamine]

Same assay, conditions: MDCK-Net6 cells, 6,000 cells/well; Conc 6000 nM (6 μM); read-out: Procedure B hNET uptake (% inhibition)

inhibition at 6 µM [%] | Compound
35 | CN1CCN(CCC2Oc3ccccc3N(c3ccccc3)S2(=O)=O)CC1 (stereo not shown) [Example 30, 3-[2-(4-methylpiperazin-1-yl)ethyl]-1-phenyl-1H-4,2,1-benzoxathiazine 2,2-dioxide]
54 | O=S1(=O)C(CCNC2CCC2)Oc2ccccc2N1c1ccccc1 (stereo not shown) [Example 32, N-[2-(2,2-dioxido-1-phenyl-1H-4,2,1-benzoxathiazin-3-yl)ethyl]cyclobutanamine]
57 | CCCCNCCCC1Oc2ccccc2N(c2ccccc2)S1(=O)=O (stereo not shown) [Example 36, N-[3-(2,2-dioxido-1-phenyl-1H-4,2,1-benzoxathiazin-3-yl)propyl]butan-1-amine]
15 | CC(C)NCCCC1Oc2ccccc2N(c2ccccc2)S1(=O)=O (stereo not shown) [Example 37, 3-(2,2-dioxido-1-phenyl-1H-4,2,1-benzoxathiazin-3-yl)-N-isopropylpropan-1-amine]
63 | CC(C)CNCCCC1Oc2ccccc2N(c2ccccc2)S1(=O)=O (stereo not shown) [Example 38, N-[3-(2,2-dioxido-1-phenyl-1H-4,2,1-benzoxathiazin-3-yl)propyl]-2-methylpropan-1-amine]
32 | O=S1(=O)C(CCCNCCCO)Oc2ccccc2N1c1ccccc1 (stereo not shown) [Example 39, 3-{[3-(2,2-dioxido-1-phenyl-1H-4,2,1-benzoxathiazin-3-yl)propyl]amino}propan-1-ol]
50 | O=S1(=O)C(CCCNC2CCC2)Oc2ccccc2N1c1ccccc1 (stereo not shown) [Example 41, N-[3-(2,2-dioxido-1-phenyl-1H-4,2,1-benzoxathiazin-3-yl)propyl]cyclobutanamine]
48 | O=S1(=O)C(CCCNC2CCCC2)Oc2ccccc2N1c1ccccc1 (stereo not shown) [Example 42, N-[3-(2,2-dioxido-1-phenyl-1H-4,2,1-benzoxathiazin-3-yl)propyl]cyclopentanamine]
67 | O=S1(=O)C(CCCNC2CCCCC2)Oc2ccccc2N1c1ccccc1 (stereo not shown) [Example 43, N-[3-(2,2-dioxido-1-phenyl-1H-4,2,1-benzoxathiazin-3-yl)propyl]cyclohexanamine]
